Tests used:
[1] = molecular target: T1, murine mastocytoma P815 cells overexpressing hTDO2 (Homo sapiens, UniProt P48775); assay: Cellular assay for TDO2 activity determination; format: cell-based; conditions: P815 cells overexpressing hTDO2, overnight incubation at 37° C., kynurenine absorbance at 480 nm
T1 construct: expressed in transfected cells; host or cells: murine mastocytoma P815 cells
Experimental: The assay was performed in 96-well flat bottom plates seeded with murine mastocytoma P815 cells overexpressing hTDO2 (prepared as described in Pilotte et al., PNAS, 2012, 109(7), 2497-2502), at a concentration of 5×10^4 cells/well in a final volume of 200 μL. To determine TDO or IDO activity, the cells were incubated overnight at 37° C. at 5% CO2 in IMDM (Invitrogen) supplemented with 2% FBS and 2% penicillin/streptomycin in the presence of the compounds of the present invention, at different concentrations.
The plates were then centrifuged 5 min at 1000 rpm, and 100 μL of the supernatant were collected in a conical plate, 30 uL of TCA 30% were added and a further centrifugated at 3000×g for 10 minutes. 100 μL of the supernatant were collected in a flat bottomed plate and 100 μL of 2% (w/v) 4-(dimethylamino)-benzaldehyde in acetic acid and incubated for 5 min at room temperature. Kynurenine concentrations were determined by measuring the absorbance at 480 nm. A standard curve was made with pure kynurenine. The TDO activity was measured as described above using ten serial concentrations of the compounds of the present invention. Data were fitted using the Prism software (GraphPad Software, Inc.).

[2] = molecular target: T2, human recombinant TDO2 enzyme (Homo sapiens, UniProt P48775); assay: Assay for TDO2 enzymatic activity determination; format: biochemical; conditions: human recombinant TDO2, L-Trp 1 mM, room temperature one hour, kynurenine absorbance at 480 nm
T2 construct: made in house
T2 sequence (P48775 whole entry): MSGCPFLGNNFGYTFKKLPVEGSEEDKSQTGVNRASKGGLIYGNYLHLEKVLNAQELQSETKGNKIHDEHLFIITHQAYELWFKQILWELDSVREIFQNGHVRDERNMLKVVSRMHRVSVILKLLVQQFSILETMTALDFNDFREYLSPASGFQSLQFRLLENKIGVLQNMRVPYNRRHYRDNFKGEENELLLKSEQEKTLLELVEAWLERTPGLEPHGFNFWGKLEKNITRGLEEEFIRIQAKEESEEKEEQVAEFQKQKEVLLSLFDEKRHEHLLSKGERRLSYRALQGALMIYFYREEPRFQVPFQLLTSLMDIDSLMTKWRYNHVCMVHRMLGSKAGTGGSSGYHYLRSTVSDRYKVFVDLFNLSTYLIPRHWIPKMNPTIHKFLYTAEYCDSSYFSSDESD
Experimental: To measure the TDO2 activity, the reaction mixture contained (final concentrations) potassium phosphate buffer (50 mM, pH 7.5), ascorbic acid (0.25 M), methylene blue (0.125 μM), catalase (40 units/mL, from bovine liver, Sigma), and human recombinant TDO2 enzyme (prepared as described in Dolusic et al. J. Med. Chem.; 2011, 54, 5320-5334; 0.9 μg) without or with the compounds of the present invention embodiments at the indicated concentrations (total volume 112.5 μL). The reaction was initiated by the addition of 37.5 μL of L-Trp (final concentration 1 mM) at room temperature. The reaction was conducted at room temperature during one hour and stopped by the addition of 30 μL of 30% (w/v) trichloroacetic acid.
To convert N-formylkynurenine into kynurenine, the reaction mixture was incubated at 65° C. for 30 min. Then 150 μL of the reaction mixture was mixed with 120 μL, of 2.5% (w/v) 4-(dimethylamino)-benzaldehyde in acetic acid and incubated for 5 min at room temperature. Kynurenine concentrations were determined by measuring the absorbance at 480 nm. A standard curve was made with pure kynurenine. The TDO activity was measured as described above using ten serial concentrations of certain embodiments of the compounds of the present invention. Data were fitted using the Prism software (GraphPad Software, Inc.).

T1 sequence (P48775 whole entry): as above

melting point [°C]	IC50 [1] [nM]	IC50 [2] [nM]	Structure (SMILES)
153.3 to 155.1	< 1000	1000 to 10000	CS(=O)(=O)CCn1cc(-c2c[nH]c3cc(F)ccc23)cn1 [Example 31, 6-fluoro-3-(1-(2-(methylsulfonyl)ethyl)-1H-pyrazol-4-yl)-1H-indole]
222.8 to 223.7	< 1000	1000 to 10000	CN1CCC(n2cc(-c3c[nH]c4cc(F)ccc34)cn2)CC1 [Example 91, 6-fluoro-3-(1-(1-methylpiperidin-4-yl)-1H-pyrazol-4-yl)-1H-indole]
138.9 to 139.6	1000 to 10000	1000 to 10000	Fc1ccc2c(-c3cnn(CC4CCOCC4)c3)c[nH]c2c1 [Example 58, 6-fluoro-3-(1-((tetrahydro-2H-pyran-4-yl)methyl)-1H-pyrazol-4-yl)-1H-indole]
184.5 to 185.5	< 1000	1000 to 10000	CC(Cn1cc(-c2c[nH]c3cc(F)ccc23)cn1)C(N)=O (single isomer, unassigned) [Example 35, 3-(4-(6-fluoro-1H-indol-3-yl)-1H-pyrazol-1-yl)-2-methylpropanamide]
167.1 to 168.9	< 1000	1000 to 10000	Fc1cc2[nH]cc(-c3cnn(CC4CCNCC4)c3)c2cc1F [Example 44, 5,6-difluoro-3-(1-(piperidin-4-ylmethyl)-1H-pyrazol-4-yl)-1H-indole]
173.3 to 175	< 1000	< 1000	NC(=O)CCn1cc(-c2c[nH]c3cc(F)ccc23)cn1 [Example 7, 3-(4-(6-fluoro-1H-indol-3-yl)-1H-pyrazol-1-yl)propanamide]
183.2 to 184.5	< 1000	1000 to 10000	CC(=O)N1CCC(n2cc(-c3c[nH]c4cc(F)ccc34)cn2)CC1 [Example 89, 1-(4-(4-(6-fluoro-1H-indol-3-yl)-1H-pyrazol-1-yl)piperidin-1-yl)ethanone]
94.2 to 95.2	1000 to 10000	< 1000	CNCCn1cc(-c2c[nH]c3cc(F)ccc23)cn1 [Example 24, 2-(4-(6-fluoro-1H-indol-3-yl)-1H-pyrazol-1-yl)-N-methylethanamine]
240.1 to 241.8	< 1000	1000 to 10000	Fc1ccc2c(-c3cnn(C4CCNCC4)c3)c[nH]c2c1 [Example 78, 6-fluoro-3-(1-(piperidin-4-yl)-1H-pyrazol-4-yl)-1H-indole]
226 to 228		10000 to 100000	O=C(O)CCC(=O)N1CCC(n2cc(-c3c[nH]c4cc(F)ccc34)cn2)CC1 [Example 80, 4-(4-(4-(6-fluoro-1H-indol-3-yl)-1H-pyrazol-1-yl)piperidin-1-yl)-4-oxobutanoic acid]
193.1 to 194.1	1000 to 10000	1000 to 10000	O=S1(=O)CCC(Cn2cc(-c3c[nH]c4cc(F)ccc34)cn2)CC1 [Example 60, 4-((4-(6-fluoro-1H-indol-3-yl)-1H-pyrazol-1-yl)methyl)tetrahydro-2H-thiopyran 1,1-dioxide]

Source: US9126984B2, “4-(indol-3-yl)-pyrazole derivatives, pharmaceutical compositions and methods for use” (ITEOS THERAPEUTICS, priority 2013, dated 2015)
